Source: ChEMBL document CHEMBL1201862, “PubChem BioAssay data set” (2004)
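Cells were grown in 96-well plates and exposed to each compound for 48 hours at five concentrations; endpoints were interpolated linearly between bracketing concentrations, or set to the highest concentration if not reached. GI50 marks 50% less growth.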 Active and inactive are the calls of the source. No stated cut-off is given here; in the data, active = GI50 up to about 1.1 µM and inactive = higher.

Columns and labels:
Assay in all cases: NCI anticancer screen, dose series, 48 h
[1] = test system: A549
[2] = test system: OVCAR-3
[3] = test system: RPMI-8226
[4] = test system: NCI/ADR-RES
[5] = test system: NCI-H460
[6] = test system: MDA-N
[7] = test system: SW-620
[8] = test system: EKVX
[9] = test system: OVCAR-4
[10] = test system: PC-3
[11] = test system: HL-60
[12] = test system: M14
[13] = test system: UACC-257
[14] = test system: K562
[15] = test system: Malme-3M
[16] = test system: UO-31
[17] = test system: MDA-MB-435
[18] = test system: SK-OV-3
[19] = test system: MDA-MB-231
[20] = test system: SNB-75
[21] = test system: SK-MEL-5
[22] = test system: IGROV-1
[23] = test system: COLO 205
[24] = test system: OVCAR-8
[25] = test system: U-251
[26] = test system: SF-268
[27] = test system: TK-10
[28] = test system: CAKI-1
[29] = test system: UACC-62
[30] = test system: BT-549
[31] = test system: SNB-19
[32] = test system: OVCAR-5
[33] = test system: HCT-15
[34] = test system: ACHN
[35] = test system: HCT-116
[36] = test system: SR
[37] = test system: DU-145
[38] = test system: HOP-62
[39] = test system: LOX IMVI
[40] = test system: CCRF-CEM
[41] = test system: Hs-578T
[42] = test system: SK-MEL-28
[43] = test system: MOLT-4
[44] = test system: NCI-H23
[45] = test system: SN12C
[46] = test system: SF-295
[47] = test system: HT-29
[48] = test system: MCF7
[49] = test system: SF-539
[50] = test system: KM12
[51] = test system: RXF 393
[52] = test system: T47D
[53] = test system: HOP-92
[54] = test system: 786-0
[55] = test system: A498
[56] = test system: NCI-H226
[57] = test system: HCC 2998
[58] = test system: NCI-H522
[59] = test system: SK-MEL-2

Measured: GI50

COc1ccc(-c2c3c(nc4nc(SCC(=O)c5ccc(Br)cc5)nc(N)c24)CCCC3)cc1OC
inactive: [1] > 100 µM | [2] > 100 µM | [3] 64.1 µM | [4] 74.5 µM | [5] > 100 µM | [6] > 100 µM | [7] 74.5 µM | [8] 84.1 µM | [9] 33.7 µM | [10] > 100 µM | [11] 90.6 µM | [12] 41.9 µM | [13] > 100 µM | [14] > 100 µM | [15] 42.6 µM | [16] > 100 µM | [17] > 100 µM | [18] 30.5 µM | [19] 26.9 µM | [20] 14.9 µM | [21] 10.1 µM | [22] > 100 µM | [23] > 100 µM | [24] 33.5 µM | [25] > 100 µM | [26] 71.9 µM | [27] > 100 µM | [28] 79.6 µM | [29] > 100 µM | [30] 80 µM | [31] > 100 µM | [32] > 100 µM | [34] > 100 µM | [35] > 100 µM | [36] > 100 µM | [37] > 100 µM | [38] 58.6 µM | [39] > 100 µM | [40] > 100 µM | [41] 15.3 µM | [42] 64 µM | [43] > 10 µM | [44] > 100 µM | [45] > 100 µM | [46] > 100 µM | [47] 41.4 µM | [48] > 100 µM | [49] > 100 µM | [50] > 100 µM | [51] 19.3 µM | [52] 73.6 µM
> 100 µM: [33]

CNC(=O)CCC(NC(C)=O)C(=O)NC(Cc1ccc(NC(=O)CCCCC(C)=O)cc1)C(=O)NC(CCC(=O)NC)C(=O)NC (stereo unspecified)
inactive: [1] > 100 µM | [2] > 100 µM | [3] > 100 µM | [4] > 100 µM | [53] > 100 µM | [5] > 100 µM | [6] > 100 µM | [54] > 100 µM | [55] > 100 µM | [7] > 100 µM | [8] > 100 µM | [9] > 100 µM | [10] > 100 µM | [11] > 100 µM | [12] > 100 µM | [14] > 100 µM | [15] > 100 µM | [16] > 100 µM | [17] > 100 µM | [18] > 100 µM | [19] > 100 µM | [21] > 100 µM | [22] > 100 µM | [23] > 100 µM | [24] > 100 µM | [25] > 100 µM | [26] > 100 µM | [27] > 100 µM | [28] > 100 µM | [29] > 100 µM | [30] > 100 µM | [56] > 100 µM | [31] > 100 µM | [32] > 100 µM | [34] > 100 µM | [35] > 100 µM | [57] > 100 µM | [37] > 100 µM | [38] > 100 µM | [39] > 100 µM | [58] > 100 µM | [41] 40.2 µM | [42] > 100 µM | [43] > 100 µM | [44] > 100 µM | [45] > 100 µM | [46] > 100 µM | [47] > 100 µM | [48] > 100 µM | [49] > 100 µM | [50] > 100 µM | [51] > 100 µM | [52] > 100 µM
> 100 µM: [33]

CC(C)(CO)NC(=O)Nc1c(C(F)(F)F)cc(-c2ccccc2)[nH]c1=O
inactive: [1] > 100 µM | [2] 29.4 µM | [4] > 100 µM | [53] > 100 µM | [5] > 100 µM | [6] > 100 µM | [54] > 100 µM | [55] > 100 µM | [7] > 100 µM | [8] > 100 µM | [10] > 100 µM | [12] > 100 µM | [13] > 100 µM | [14] > 100 µM | [15] > 100 µM | [16] > 100 µM | [17] > 100 µM | [18] > 100 µM | [19] > 100 µM | [21] > 100 µM | [22] > 100 µM | [23] > 100 µM | [24] > 100 µM | [25] > 100 µM | [26] > 100 µM | [27] > 100 µM | [28] > 100 µM | [29] > 100 µM | [30] > 100 µM | [56] > 100 µM | [31] > 100 µM | [32] > 100 µM | [34] > 100 µM | [35] > 100 µM | [57] > 100 µM | [37] > 100 µM | [38] > 100 µM | [39] > 100 µM | [40] > 100 µM | [58] > 100 µM | [59] > 100 µM | [41] > 100 µM | [42] > 100 µM | [43] > 100 µM | [44] > 100 µM | [45] > 100 µM | [46] > 100 µM | [47] > 100 µM | [48] > 100 µM | [50] > 100 µM | [51] > 100 µM | [52] > 100 µM
> 100 µM: [33]

N#Cc1sc2c(c1OC(=O)c1cccs1)c(=O)n(-c1ccccc1)c(=S)n2-c1ccccc1
inactive: [1] 31 µM | [2] 31.1 µM | [3] 18.7 µM | [4] 21.8 µM | [5] 28.2 µM | [6] 26.7 µM | [54] 31.4 µM | [7] 21.8 µM | [8] 33.2 µM | [9] 20.7 µM | [10] 18 µM | [11] 21.3 µM | [12] 19.1 µM | [13] 32 µM | [14] 22 µM | [15] 18.2 µM | [16] 16.1 µM | [17] 29.9 µM | [18] 29.6 µM | [19] 20.1 µM | [20] 38.7 µM | [21] 16 µM | [22] 19.8 µM | [23] 19.9 µM | [24] 25.9 µM | [25] 20.2 µM | [26] 30.1 µM | [27] 31 µM | [28] 32.4 µM | [29] 17.2 µM | [30] 15.5 µM | [56] 19.5 µM | [31] 26.5 µM | [35] 15.2 µM | [36] 25.6 µM | [37] 32.4 µM | [38] 19.6 µM | [39] 20.3 µM | [40] > 10 µM | [58] 16.4 µM | [59] 21.1 µM | [41] 15.2 µM | [42] 21.9 µM | [43] 19.4 µM | [44] 25.3 µM | [45] 19.2 µM | [46] 21 µM | [47] 29.5 µM | [48] 21.5 µM | [49] 22.4 µM | [50] 18.9 µM | [51] 14.9 µM | [52] 10.9 µM
17.3 µM: [33]

CCOC(=O)c1c(CN2CCNCC2)nc2ccccc2c1-c1ccccc1
inactive: [1] 16.7 µM | [2] 17.5 µM | [3] 14.4 µM | [4] 16.2 µM | [53] 4.69 µM | [5] 14.3 µM | [6] 10.9 µM | [54] 12.7 µM | [55] 14.6 µM | [7] 17.1 µM | [8] 15.5 µM | [9] 15 µM | [10] 13.4 µM | [11] 12.9 µM | [12] 13.4 µM | [13] 4.07 µM | [14] 12.6 µM | [15] 10.2 µM | [16] 7.28 µM | [17] 14.3 µM | [18] 16.5 µM | [19] 15.6 µM | [20] 7.03 µM | [21] 13.6 µM | [22] 15.3 µM | [23] 14.3 µM | [24] 15.8 µM | [25] 14.3 µM | [26] 14 µM | [27] 14.3 µM | [28] 12.2 µM | [29] 15 µM | [30] 17.2 µM | [56] 18.6 µM | [31] 17.5 µM | [32] 16.8 µM | [34] 16.8 µM | [35] 11.4 µM | [57] 1.9 µM | [37] 17.5 µM | [38] 16.9 µM | [39] 15.8 µM | [40] 12.7 µM | [58] 14.3 µM | [59] 15.6 µM | [41] 16.1 µM | [42] 11.7 µM | [43] 10.8 µM | [44] 18.7 µM | [45] 14.7 µM | [46] 15.1 µM | [47] 5.41 µM | [48] 14.3 µM | [49] 16.8 µM | [50] 15.6 µM | [51] 2.92 µM | [52] 13.9 µM
16.1 µM: [33]
